# Laboratory results as given in PMC6243750, “Behavioral Evidence and Olfactory Reception of a Single Alarm Pheromone Component in Halyomorpha halys” (Frontiers in Physiology, 2018).
# Assays:
# H. halys OBP30 [1] = target: T1, H. halys OBP30 (Halyomorpha halys, UniProt A0A1P8P1N8); test: Fluorescence binding of probe 1-NPN to OBP (Scatchard); settings: dissociation constant of OBP30/1-NPN, 2 μM OBP, 50 mM Tris-HCl pH 7.4; read-out: KOBPx/1-NPN
# T1 sequence (A0A1P8P1N8 19-136): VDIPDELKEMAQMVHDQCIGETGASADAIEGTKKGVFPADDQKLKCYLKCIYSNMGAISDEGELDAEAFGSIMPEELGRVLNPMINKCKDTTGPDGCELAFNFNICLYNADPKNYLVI
# Procedure: (§1) Emission fluorescence spectra were measured on a HORIBA FluoromMax®-4 fluorescence spectrophotometer in a right-angle configuration with a 1 cm light path quartz cuvette. The protein was dissolved in 50 mM Tris-HCl buffer, pH 7.4, while all ligands used in binding experiments were used as 1 mM methanol solutions. The excitation wavelength was 337 nm, and the range of the scanning emission wavelength was 380–450 nm.
# (§2) The binding constants of OBPs with probe N-phenyl-1-naphtylamine (1-NPN) were determined. We first added 2 ml 50 mM Tris-HCl solution to the cuvette, then added the OBP until the concentration reached 2 μM, measured and recorded the emission spectrum, continued titration, and recorded the highest stable fluorescence intensity. The Scatchard equation was used to record the binding constant of each OPB with 1-NPN.
# H. halys OBP25 [2] = target: T2, H. halys OBP25 (Halyomorpha halys, UniProt A0A1L2JGT3); test: as above; settings: dissociation constant of OBP25/1-NPN, 2 μM OBP, 50 mM Tris-HCl pH 7.4; read-out: KOBPx/1-NPN
# T2 sequence (A0A1L2JGT3 20-148): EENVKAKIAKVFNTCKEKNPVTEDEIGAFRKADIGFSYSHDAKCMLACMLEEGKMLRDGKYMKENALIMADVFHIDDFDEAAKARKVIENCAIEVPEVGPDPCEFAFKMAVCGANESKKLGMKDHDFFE
# Procedure: as §1, §2
# H. halys OBP4 [3] = target: T3, H. halys OBP4 (Halyomorpha halys, UniProt A0A1L2JGP5); test: as above; settings: dissociation constant of OBP4/1-NPN, 2 μM OBP, 50 mM Tris-HCl pH 7.4; read-out: KOBPx/1-NPN
# T3 sequence (A0A1L2JGP5 20-212): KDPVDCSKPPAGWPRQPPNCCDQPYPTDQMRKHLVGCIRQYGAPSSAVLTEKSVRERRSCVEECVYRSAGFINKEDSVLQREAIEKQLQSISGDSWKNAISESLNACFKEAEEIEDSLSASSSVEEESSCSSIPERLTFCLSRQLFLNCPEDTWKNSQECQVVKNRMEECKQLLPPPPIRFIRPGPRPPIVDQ
# Procedure: as §1, §2
# H. halys OBP8 [4] = target: T4, H. halys OBP8 (Halyomorpha halys, UniProt A0A1N7TMV1); test: as above; settings: dissociation constant of OBP8/1-NPN, 2 μM OBP, 50 mM Tris-HCl pH 7.4; read-out: KOBPx/1-NPN
# T4 sequence (A0A1N7TMV1 23-143): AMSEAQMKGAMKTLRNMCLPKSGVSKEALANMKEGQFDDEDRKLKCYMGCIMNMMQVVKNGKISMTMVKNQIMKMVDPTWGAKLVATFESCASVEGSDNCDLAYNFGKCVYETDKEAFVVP
# Procedure: as §1, §2
# H. halys OBP16 [5] = target: T5, H. halys OBP16 (Halyomorpha halys, UniProt A0A1L2JGT7); test: as above; settings: dissociation constant of OBP16/1-NPN, 2 μM OBP, 50 mM Tris-HCl pH 7.4; read-out: KOBPx/1-NPN
# T5 sequence (A0A1L2JGT7 23-177): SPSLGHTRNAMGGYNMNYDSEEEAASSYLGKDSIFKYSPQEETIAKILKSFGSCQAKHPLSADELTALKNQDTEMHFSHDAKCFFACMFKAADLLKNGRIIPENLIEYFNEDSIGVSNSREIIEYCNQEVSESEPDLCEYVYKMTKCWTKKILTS
# Procedure: as §1, §2
# H. halys OBP30 [6] = target: T1, H. halys OBP30; test: Competitive fluorescence-binding assay with 1-NPN as probe
# Procedure: as §1
# (§3) The binding abilities of the OBPs and (E)-2-decenal were later investigated. Fluorescence intensities were automatically subtracted from blank fluorescence values when harvested from instrument. The excitation wavelength was set at 337 nm, and the range of the scanning emission wavelength was 380–450 nm. First, 2 mL 50-mM Tris-HCl solution was added, and then the OBP and 1-NPN were added until the concentration was 2 μM. The highest stable fluorescence intensity was record. Then, we added the (E)-2-decenal, which was dissolved in methanol in the cuvette, and continued the titration from 2 μM until the fluorescence intensity was stable. The highest stable fluorescence intensity was recorded. Each OBP was tested three times. The dissociation constant was calculated based on the formula Kd = [IC50]/(1 + [1-NPN]/K1−NPN), where IC50 represents the (E)-2-decenal concentration when the fluorescence intensity of [OBP/1-NPN] declined to the half of the highest value, [1-NPN] represents the dissociative concentration of 1-NPN, and K1−NPN represents the dissociation constant of OBP/1-NPN.
# H. halys OBP25 [7] = target: T2, H. halys OBP25; test: as above
# Procedure: as §1, §3
# H. halys OBP4 [8] = target: T3, H. halys OBP4; test: as above
# Procedure: as §1, §3
# H. halys OBP8 [9] = target: T4, H. halys OBP8; test: as above
# Procedure: as §1, §3
# H. halys OBP16 [10] = target: T5, H. halys OBP16; test: as above
# Procedure: as §1, §3
# H. halys = system: H. halys; set-up: method as in Zhang et al., 2014a; settings: combined with tridecane; ref Zhang et al., 2014a; cited from earlier work
# H. halys adults = test: Grouped dispersal (repellency) test; type: in vivo, Halyomorpha halys; settings: 10 μg, 60 s
# Procedure: A group test was performed first to assess the repellency of (E)-2-decenal to H. halys adults. In total, 10–20 adults were collected and moved into a plastic rearing box for 1 h to let the adults aggregate and rest before the test. A filter paper loaded with 10 μg (E)-2-decenal was then put into a syringe, and the volatile was released into the air at a distance of 1 cm from the aggregated H. halys adults. The test lasted for 60 s, and the number of dispersed H. halys were counted and recorded. n-Hexane was used as the control following the same protocol. In total, 10 replicates were performed for each treatment.
# H. halys antennae = test: EAG recordings on excised antennae; set-up: species or system Halyomorpha halys; settings: 10 μg dose, all developmental stages, versus n-hexane control
# Procedure: EAG recordings were used to identify electrophysiological activities of H. halys at each developmental stage (female and male adults, and nymphal larvae). Each antenna of the brown marmorated stink bug was prepared following the standard procedures of cutting its tip and base and immediately mounting the excised antenna between two glass capillary Ag/AgCl electrodes filled with Kaissling saline (Tang et al., [2016]). The electrode at the distal end of the antenna was connected through an interface box to a signal acquisition interface board (IDAD; Syntech, Netherlands).
# n-Hexane was used as the control, and 1 μg/μl (E)-2-decenal was used as the test solution. The measure dose was 10 μg, and the order of antennal exposure was air, n-hexane, and (E)-2-decenal. In total, 10 replicates were used. The direct voltage was 2 mv, the continuous flow velocity was 150 ml/min, the stimulated flow velocity was 20 ml/min, the stimulation time was 0.1 s, and the stimulus intervals were 10 s.
# The following equation was used to calculate the EAG recording result:
# Relative response value = sample response value − control response value.
# [11] = system: H. halys adults and 1st to 5th instar nymphs; test: Route test with individual stink bugs on circular track; type: in vivo, Halyomorpha halys
# Procedure: To identify the alarm pheromone activity in each developmental stage of H. halys (female and male adults, and 1st to 5th instar nymphs), we performed a behavioral test (Noge et al., [2015]) using a gradient of (E)-2-decenal solutions (10 μg/μl, 1 μg/μl, 100 ng/μl, 10 ng/μl, and 1 ng/μl) for the nymphs and the last four doses for both genders of adults. A circular track was made by joining the ends of a silicone tube (100 cm long, 1.2 cm inner diameter), and the track was placed on a tripod stand in the behavioral testing laboratory (25°C ± 1°C, relative humidity = 50% ± 10%). An individual H. halys was placed gently on the track and left for 5 min until it was motionless. Different 10-μl concentrations of (E)-2-decenal were loaded onto a filter paper disk (2 cm diameter), and the disk was then placed 2 mm from the stink bug's antenna. The time taken for the nymph or adult stink bug to change direction and the distance it moved away from the starting point within 15 s were observed and recorded. […] Every developmental stage of H. halys for each chemical treatment was tested 15 times.
# male and female H. halys = system: male and female H. halys; set-up: method as in Zhong et al., 2017; settings: ref Zhong et al., 2017; cited from earlier work
# entomopathogenic fungi = system: entomopathogenic fungi; set-up: method as in Weber et al., 2017b; settings: ref Weber et al., 2017b; cited from earlier work
# adult N. viridula = system: adult N. viridula; set-up: method as in Lockwood and Story, 1987; settings: ref Lockwood and Story, 1987; cited from earlier work
# [12] = Kd = [IC50]/(1 + [1-NPN]/K1-NPN), OBP and 1-NPN 2 μM
# [13] = concentration at which [OBP/1-NPN] fluorescence declined to half
smiles,measurement,setting,value
"c1ccc(Nc2cccc3ccccc23)cc1 [1-NPN, N-phenyl-1-naphtylamine]",Kd,H. halys OBP30 [1],2.79 ± 0.74 µM
same,Kd,H. halys OBP25 [2],0.51 ± 0.3 µM
same,Kd,H. halys OBP4 [3],9.18 ± 2.67 µM
same,Kd,H. halys OBP8 [4],2.74 ± 0.8 µM
same,Kd,H. halys OBP16 [5],1.13 ± 0.08 µM
CCCCCCC/C=C/C=O [(E)-2-decenal],Kd,H. halys OBP30 [6]; [12],10.5 ± 0.64 µM
same,IC50,H. halys OBP30 [6]; [13],16.7 ± 1.01 µM
same,Kd,H. halys OBP25 [7]; [12],2.21 ± 0.064 µM
same,IC50,H. halys OBP25 [7]; [13],7.18 ± 0.21 µM
same,binding activity to (E)-2-decenal,"H. halys OBP4 [8]; OBP4, in words",did not show a good binding activity
same,Kd,"H. halys OBP4 [8]; OBP4, Kd = [IC50]/(1 + [1-NPN]/K1-NPN), OBP and 1-NPN 2 μM",26 ± 3.01 µM
same,IC50,"H. halys OBP4 [8]; OBP4, concentration at which [OBP/1-NPN] fluorescence declined to half",31.3 ± 3.61 µM
same,Kd,H. halys OBP8 [9]; [12],8.61 ± 0.24 µM
same,IC50,H. halys OBP8 [9]; [13],13.7 ± 0.38 µM
same,Kd,H. halys OBP16 [10]; [12],6.16 ± 0.42 µM
same,IC50,H. halys OBP16 [10]; [13],13.7 ± 0.94 µM
same,feeding deterrence,H. halys,strong feeding deterrent
same,Repellent rates,H. halys adults,84.1 ± 5.14%
same,EAG responses,H. halys antennae,"significantly greater electrophysiological responses compared with the n-hexane control, except for the 1st instar nymphs"
same,repellence compared with n-hexane control,"[11]; 1 μg and 10 μg, all stages of H. halys",significantly repelled
same,moving distances compared with n-hexane control,"[11]; 3rd to 5th instar nymphs, all tested doses, within 15 s",significantly longer moving distances
same,repellent effect starting at a tested dose,"[11]; 5th instar nymphs, response time",10 ng
same,repellence in Y-tube assays,male and female H. halys,strongly repel
same,effect on entomopathogenic fungi,entomopathogenic fungi,fungistatic effect and inhibits spore germination
same,alarm effects,adult N. viridula,no alarm effects
